Molecules are shown by their SMILES.

In general, melting point refers to the temperature, or range, at which the solid turns liquid.

In the case of `Nc1cccc(Oc2ccc(C(=O)c3cccc(N)c3)cc2)c1`, the melting point fell in the range of 48 to 52 °C. Turning to `Cc1cc(C)c(S(=O)(=O)OCCC2CCN(S(=O)(=O)c3c(C)cc(C)cc3C)CC2)c(C)c1`, the melting point was 93.5 to 94 °C. Compound `COC(=O)c1ccc(Cl)cc1NS(C)(=O)=O` came in with a melting point of 126 to 128 °C.

Turning to `COC(=O)c1cc(I)ccc1OC`, the melting point lay in the range of 48 to 50 °C. `CC(=O)N[C@H]1CC[C@H](c2ccc(S(N)(=O)=O)cc2)CC1` returned a melting point of 268 to 269 °C. In turn, `COc1cc(Nc2c(C#N)cnc3cc(-c4cnc(C=O)n4C)sc23)c(Cl)cc1Cl` gave a melting point of 225 to 227 °C. `O=C(O)CCCCCCCCCCc1ccc(Cl)cc1` yielded a melting point of 93 °C. Consider `Cc1ccc2nc(Cl)nc(NN)c2c1`, for which the melting point was more than 280 °C.

In turn, `CCOC(=O)CCN1C(=O)NC(C)(CCc2cc(C(C)(C)C)c(O)c(C(C)(C)C)c2)C1=O` (configuration not stated) gave a melting point of 100 °C. For `CCOC(=O)C(=O)c1cn(-c2ccccc2)c2ccccc12`, the melting point is 109 to 110 °C. On to `CCc1cc(C)cc(C)c1NC(=S)NC(C)(C)CC`, for which the melting point was in the range of 105 to 107 °C. To `CCCCC(CC)CN(CCC)c1ccc(C2=C(C#N)C(=C(C#N)C#N)NC2=O)cc1` (configuration not stated) belongs 189 °C; to `O=C(Nc1ccc2ccccc2n1)c1ccc(COc2ccc3c(c2)CCC(CCN2CCCCC2)C3)cc1` (configuration not stated), 135 to 138 °C; to `CN(C)C(=O)C(c1ccc(N)cc1)C1(O)CCCCC1` (configuration not stated), 169 to 170 °C. The same measure for `O=C(On1nnc2ccccc21)c1ccccc1`: 75 to 78.5 °C; for `COc1ccc(-c2ncc(Cl)nc2-c2ccc(OC)cc2)cc1`: 126 to 127 °C. The same measure for `CN(C)c1nc(O)cc(O)n1`: more than 300 °C.

With `CC(C)[C@H](N)C(=O)N[C@@H](Cc1ccccc1)C(O)[C@H](Cc1ccccc1)NC(=O)[C@@H](N)C(C)C`, the melting point lay within 131 to 132 °C.

Consider `OCc1cc2cc(OCc3ccccc3)c(F)cc2nc1I`, for which the melting point amounted to 188 °C. To `O=C(O)C1Oc2ccccc2C2(CC2)c2cccc(Cl)c2O1` (configuration not stated) belongs 154 to 158 °C. As for `CCc1c(CC#N)ccc(O)c1O`, the melting point was in the range of 101 to 103 °C. With `CC(=O)C(=NNc1ccccc1)C(=O)N(C)C`, the melting point was 131 to 133 °C. `Cn1c(C#N)ccc1[N+](=O)[O-]`: the melting point is 86 to 87 °C.

Turning to `CCCCCCCC(O)C(O)Cc1cc(C(N)=O)ccc1C(N)=O` (configuration not stated), the melting point was 118 °C. `O=C1c2ccc(N3CCN(c4ccccc4)CC3)nc2CC2CCCCC12` (configuration not stated): the melting point is 164 to 166 °C. For the compound `COc1cc(NC(=O)C2C(=O)N(C)C(=O)N(C)C2=O)ccc1O`, the melting point lay in the range of 252 to 253 °C.

`COc1cc(OC)c(S(=O)(=O)Cl)cc1-c1nc2nccnc2[nH]1` had a melting point of 294 to 296 °C. In turn, `COC(=O)NC(CC(=O)c1ccc(Cl)cc1)C(=O)O` (configuration not stated) returned a melting point of 141 to 142 °C. `O=S(=O)(c1ccc(F)c(C(F)(F)F)c1)N1CCC(Nc2nc(Nc3cccc(C(F)(F)F)c3)nc(OCC(F)(F)F)n2)CC1` registered a melting point of 250 to 252 °C. The same measure for `O=S(=O)(CC(F)(F)F)c1nc2ccccc2[nH]1`: 172 to 174 °C; for `CCN(CC)C(=O)n1c(C(=O)C(C)(C)c2ccc(Cl)cc2)cc2cc(OC)ccc21`: 172 to 175 °C; for `C[C@@H](CO)Oc1cc(Oc2ccc(C(=O)N3CCC3)cc2F)cc(C(=O)Nc2ccn(C)n2)c1`: 142 °C. As to `CC(=O)Nc1cccc(-c2nn(Cc3oc4ccccc4c(=O)c3-c3ccccc3)c3ncnc(N)c23)c1`, the melting point was in the range of 122 to 123 °C. The same measure for `CCCc1c(OS(=O)(=O)N(C)C)cc2oc3cc(Cl)cn3c(=O)c2c1O`: 159 to 160 °C.

The compound `O=c1[nH]c2cc(C(F)(F)F)ccc2c(-c2cc(Cl)ccc2O)c1NS(=O)(=O)C(F)(F)F` had a melting point of 267 to 270 °C.

For the compound `CCOC(=O)C1=COc2ccc(OC(C)=O)cc2O1`, the melting point turned out to be 66 °C. In the case of `C=CCc1c([N+](=O)[O-])ccc2c1OC(CO)CO2` (configuration not stated), the melting point was 67 °C.

The compound `CC(=O)OC1CSC(Oc2cncc(-c3ccco3)c2)C(OC(C)=O)C1OC(C)=O` (configuration not stated) yielded a melting point of 184 °C. The compound `Cn1cncc1C(O)c1ccc2[nH]c(=O)cc(-c3cccc(Cl)c3)c2c1` (configuration not stated) came in with a melting point of 186 °C. The compound `CC(C)Cn1c(CNC(=O)OC(C)(C)C)c(-c2ccccc2)c2cc(C(N)=S)ccc2c1=O` came in with a melting point of 228 to 229 °C. The compound `N#CC(C(=O)Nc1cccc(Br)c1)C(=O)c1nn(-c2ccccc2)c2c1Cc1ccccc1-2` (configuration not stated) showed a melting point of 289 to 290 °C. Take `COc1ccc2c(c1)CCC(CNC(C)=O)C2` (configuration not stated): the melting point fell in the range of 96 to 97 °C. `CN(C)CCN1C(=O)N2[C@H](c3cccc(O)c3)c3[nH]c4ccc(Cl)cc4c3C[C@@]2(C)C1=O` (racemic) came in with a melting point of 283 to 286 °C. Turning to `O=C(c1ccc(Cl)cc1Cl)C1(n2cncn2)CC1`, the melting point was 55 to 56 °C. `Cc1ccc(Oc2cccc(-c3cccc(C(=O)NCCC#N)c3)n2)c(C)c1` returned a melting point of 114 to 115 °C. As to `CCCCCCCCCCCCCCCCCCOc1cn(-c2ccccc2)c(CO)cc1=O`, the melting point lay within 67 to 72 °C. To `Cc1cc(C)c(/C=C/C2OCC(C)(C)CO2)c(Br)c1` belongs 54 to 56 °C.

The compound `CCOC(=O)c1cc2c(OCC(O)CNC(C)C)cc(C)cc2[nH]1` (configuration not stated) showed a melting point of 163 to 165 °C. In the case of `CC(C)[C@H](NC(=O)OCc1ccccn1)C(=O)N[C@@H](Cc1ccccc1)C[C@H](O)[C@H](Cc1ccccc1)NC(=O)[C@@H](NC(=O)OCc1ccccn1)C(C)C`, the melting point was in the range of 220 to 222 °C. `COc1ccc2c(Cc3nc4c(F)c(F)cc(F)c4s3)cn(CC(=O)O)c2c1` came in with a melting point of 118 to 120 °C.

On to `Cc1c(NC(=O)c2ccc(OC[C@@H]3CCCO3)cc2F)ccc2cc(CNCC(C)(C)O)[nH]c12`, for which the melting point was 148 to 149 °C. Compound `COc1ccc2c(CC(=O)O)c(C(=O)c3ccc(Cl)cc3)[nH]c2c1` displayed a melting point of 193 °C.

For `Cn1ncc(C(=O)N2C[C@H]3C[C@@H]2CO3)c1C(=O)Nc1ccn2nc(-c3cccnc3)nc2c1`, the melting point lay within 272 to 273 °C. Take `[N-]=[N+]=NCCCc1cn(S(=O)(=O)c2c(Cl)nc3sccn23)c2ccc(F)cc12`: the melting point lay in the range of 84 to 86 °C. As to `O=C1NC(=O)c2cc(C(c3ccc4c(c3)C(=O)NC4=O)(C(F)(F)F)C(F)(F)F)ccc21`, the melting point is 322 °C. The same measure for `OCc1sc2cc(Br)ccc2c1Cl`: 117 to 118 °C.

`CCCCCCCCCCCCCCCCCCOc1cc(C(=O)N(CC(=O)O)CC(=O)O)cc([N+](=O)[O-])c1`: the melting point was 110 to 112 °C. In turn, `CC(C)(Nc1ccccc1[N+](=O)[O-])C(=O)O` displayed a melting point of 132 to 133 °C. Compound `CCOC(=O)c1c(CN2CCCCC2)nc2cc(OC)c(OC)cc2c1-c1ccc(OC)cc1` had a melting point of 129 to 130 °C. To `CN(C)CCCN(C(=O)Cc1ccccc1)c1ccccc1SCc1ccc(Cl)cc1` belongs 92 to 94 °C; to `CC(=O)C1C2=CCC3C(CCC4(C)C(O)C(O)CC34)C2(C)CCC1O` (configuration not stated), 152 to 153 °C; to `CCOC(=O)COc1cc(C2COc3c(C)c(C)c(NC(=O)CC(C)(C)C)c(C)c32)ccc1C(C)C` (configuration not stated), 149 to 150 °C.

The compound `COc1ccccc1-c1nc(N)ncc1-c1ccc(=O)n(C(C)C)n1` gave a melting point of 170 °C. To `O=C(c1ccc(F)cc1)c1ccc(SCc2ccccc2)cc1` belongs 96 °C; to `O=[N+]([O-])c1cn2c(n1)OC[C@@H](OCc1ncc(Br)cn1)C2`, more than 290 °C. The same measure for `CC(C)OCCCNC(=O)C(C)(C(C)C)C(C)C`: 32 °C; for `C/C(=C\c1ccc(OCCN(C)C)cc1)c1ccc2c(c1)SCC(C)(C)CS2`: 46 to 47 °C. The same measure for `CCN(CC)CCCNC(=O)Cn1ncc(-c2ccc(F)cc2)c1-c1ccccc1`: 82 to 83 °C; for `CN1c2cccc3cccc(c23)N(C)C1(C)C`: 53 to 57 °C. Compound `O=C1c2cc3nnn(Cn4cc(Br)cn4)c(=O)c3cc2OC2CCCN12` (configuration not stated) showed a melting point of 180 to 181 °C. `CN(C)C(=O)c1cccnc1S` had a melting point of 200 to 208 °C. In turn, `CCc1noc(-c2cn(-c3nccs3)cn2)n1` had a melting point of 147 to 148 °C. The compound `COCCNC(=O)c1cc(C(=O)O)cc([N+](=O)[O-])c1` displayed a melting point of 203 to 207 °C. In turn, `Nc1ncnc2c1c(-c1ccccc1Oc1ccccc1)cn2C1CCCC1` yielded a melting point of 109 to 110 °C. In turn, `COC(=O)c1ccc2c(c1)C=CC(=C(Cl)Cl)CO2` came in with a melting point of 119 to 121 °C. `O=C(Nc1ccc(-n2nc(C(F)(F)F)cc2C(F)(F)F)cc1)c1ccc(I)cc1`: the melting point lay within 196 to 198 °C. The compound `CCCCCC[C@H](C)Oc1ccc(-c2ccc(O)cc2)cc1` yielded a melting point of 100 °C.

Compound `CCC(CC)Oc1nc(C)nc(Nc2c(C)cc(C)cc2C)c1C(=O)O` displayed a melting point of 118 to 120 °C. On to `Cc1cc(N2N=CCNC2=O)cc(Cl)c1C(=O)c1ccc(Cl)cc1`, for which the melting point is 171 to 172 °C. Take `N#CC(C(=O)CF)c1cccc(Cl)c1` (configuration not stated): the melting point lay in the range of 90 to 96 °C.

Take `CC(=O)N(C(=O)OC(C)(C)C)c1ccc(-c2nc3n(Cc4c(F)cccc4F)cc(-c4ccccc4)c(=O)n3c2C)cc1`: the melting point fell in the range of 220 to 222 °C. To `CN(C)CCCOc1ccc(C[C@H](NC(=O)[C@@H]2CCCN2S(=O)(=O)c2cn(C)cn2)C(=O)O)cc1` belongs more than 200 °C. `CCCn1c(COCC)nc2c(N)nc3cc(OC4CCN(S(C)(=O)=O)CC4)ccc3c21`: the melting point was in the range of 215 to 217 °C.

Turning to `CC(C)(C)OC(=O)NC(N)Cc1ccccc1` (configuration not stated), the melting point was in the range of 40 to 50 °C. Regarding `FC(F)(F)c1cc(Cl)c(-n2cc(C3CC3(Br)Br)nn2)c(Cl)c1` (configuration not stated), the melting point lay within 156 to 158 °C. The same measure for `CCOC(=O)c1cn(CC)c2nc(N3CCN(Cc4ccc(Cl)cc4)CC3)ncc2c1=O`: 150 °C.

As for `CC(=O)C(C)C(=O)N(c1ccc(Cl)cc1)C(C)C` (configuration not stated), the melting point is 77 to 79 °C.

The values above are taken from a melting point compilation (Tetko et al.; mined from patent text by program, amines drawn as free bases though some values may be those of a salt).
